Results on seven compounds are retold here after paper PMC7665585, “Antidepressive effect of an inward rectifier K^+ channel blocker peptide, tertiapin-RQ” (PLoS ONE, 2020).

The assay deals with T1, rat ROMK (Rattus norvegicus, UniProt P35560).
T1 construct: expressed in transfected cells; host or cells: 293T cell line 208-4 (lentiviral transduction, GFP coexpressed)
T1 sequence (P35560 1-391): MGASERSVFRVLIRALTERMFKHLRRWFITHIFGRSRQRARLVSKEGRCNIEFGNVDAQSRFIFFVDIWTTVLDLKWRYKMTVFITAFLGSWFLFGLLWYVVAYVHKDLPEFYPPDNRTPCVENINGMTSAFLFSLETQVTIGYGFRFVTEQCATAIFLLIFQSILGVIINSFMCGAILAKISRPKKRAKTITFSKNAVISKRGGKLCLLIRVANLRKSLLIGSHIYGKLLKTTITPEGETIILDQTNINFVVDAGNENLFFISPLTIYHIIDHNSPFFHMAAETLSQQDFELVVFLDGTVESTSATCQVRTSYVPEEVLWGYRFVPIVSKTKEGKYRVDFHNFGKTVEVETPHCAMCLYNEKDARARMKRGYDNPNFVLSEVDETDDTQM
The assay is described as follows: Whole-cell patch-clamp of ROMK currents in 208–4 cells. Type of assay: cell-based. Conditions: blockade at 1 μM estimated from fitted Hill curve (four parameters), whole-cell conductance, n = 3–6, read-out: Activity (ROMK channel blocking activity, percentage of blockade at 1 μM). An excerpt: The cDNAs for rat ROMK and mouse GIRK1, 2, and 4 were generously donated by Drs Mikio Hayashi (Kansai Medical University) and David Weaver (Vanderbilt University). The ROMK channels were stably expressed by a cell line, 208–4, which was transduced with lentiviral vectors coexpressing the channel and green fluorescent protein (GFP) as described previously. The GIRK genes, cloned in a pCMV6 plasmid (Origene Technologies Inc, Rockville, MD), were transiently expressed in 293T cells with calcium phosphate transfection. GIRK channel currents were recorded 24 h after transfection.
Cells grown on small cover glasses (3 × 18 mm) were placed in a recording chamber. Whole-cell currents were recorded in Tyrode solution using an Axopatch 200B amplifier (Axon Instruments, Foster City, CA) at 25°C. Tyrode solution contained (in mM): NaCl 140, KCl 5.4, NaH2PO4 0.33, CaCl2 2, MgCl2 1, HEPES 5, and glucose 5.5 (pH 7.4 adjusted with NaOH). High K^+ Tyrode solution (KCL 50 mM, NaCl 95 mM, and others were the same as standard Tyrode solution) was used for the recording of GIRK channels. Patch pipettes pulled from borosilicate glass (Narishige, Tokyo, Japan) were filled with an internal solution containing (in mM): K-aspartate 66, KCl 71.5, KH2PO4 1, EGTA 5, HEPES 5, and MgATP 3 (pH 7.4 adjusted with KOH). Recordings were digitized at 10 kHz, and low-pass filtered at 2 kHz. ROMK, Kir2.1, and GIRK currents were evoked with step pulses of 400 msec from -150 mV to 10 mV in 10 mV increments from a holding potential of -70 mV. Whole-cell currents were recorded 60 sec after the peptide application and those from 100 to 300 msec of the step pulses were averaged. Liquid junction potential or capacitive transient was not corrected or compensated. Whole-cell conductance was calculated as the slope of the current-voltage (I-V) relationship from -140 mV to -100 mV and normalized to the initial value (0 μM TPN), in which BaCl2-resistant current was subtracted and indicted as a percentage.

Bridge positions count the residues as written; N and C are the ends. Peptide text beside a SMILES is read from it.

As for `CC[C@H](C)[C@@H]1NC(=O)[C@H](CCCNC(=N)N)NC(=O)[C@H](CCCNC(=N)N)NC(=O)[C@H](CC(N)=O)NC(=O)[C@@H](N)CSSC[C@@H](C(N)=O)NC(=O)[C@H](CCC(N)=O)NC(=O)[C@H](Cc2c[nH]cn2)NC(=O)[C@@H]2CCCN2C(=O)[C@H]([C@@H](C)CC)NC1=O` [Peptide 35, TPN-RQ 5–14] (H-CNRRIIPHQC-NH2; disulfide 1-10), the inhibition at 1 µM was less than 20%. Next, `CC[C@H](C)[C@@H]1NC(=O)[C@H](CCCNC(=N)N)NC(=O)[C@H](CCCNC(=N)N)NC(=O)[C@H](CC(N)=O)NC(=O)[C@@H](N)CSSC[C@@H](C(N)=O)NC(=O)[C@H](CCC(N)=O)NC(=O)[C@H](CCCCN)NC(=O)[C@@H]2CCCN2C(=O)[C@H]([C@@H](C)CC)NC1=O` [Peptide 36, TPN-RQ 5-14(H12K)] (H-CNRRIIPKQC-NH2; disulfide 1-10): less than 20%. In the case of `CC[C@H](C)[C@@H]1NC(=O)[C@H](CCCNC(=N)N)NC(=O)[C@H](CCCNC(=N)N)NC(=O)[C@H](CC(N)=O)NC(=O)[C@@H](N)CSSC[C@@H](C(=O)N[C@@H](Cc2c[nH]c3ccccc23)C(=O)N[C@@H](CCCCN)C(=O)N[C@@H](CCCCN)C(N)=O)NC(=O)[C@H](CCC(N)=O)NC(=O)[C@H](Cc2c[nH]cn2)NC(=O)[C@@H]2CCCN2C(=O)[C@H]([C@@H](C)CC)NC1=O` [Peptide 37, TPN-RQ 5–17] (H-CNRRIIPHQCWKK-NH2; disulfide 1-10), the inhibition at 1 µM is less than 20%. On to `CC[C@H](C)[C@@H]1NC(=O)[C@H](CCCNC(=N)N)NC(=O)[C@H](CCCNC(=N)N)NC(=O)[C@H](CC(N)=O)NC(=O)[C@@H](N)CSSC[C@@H](C(=O)N[C@@H](Cc2c[nH]c3ccccc23)C(=O)N[C@@H](CCCCN)C(=O)N[C@@H](CCCCN)C(N)=O)NC(=O)[C@H](CCC(N)=O)NC(=O)[C@H](CCCCN)NC(=O)[C@@H]2CCCN2C(=O)[C@H]([C@@H](C)CC)NC1=O` [Peptide 38, TPN-RQ 5-17(H12K)] (H-CNRRIIPKQCWKK-NH2; disulfide 1-10), for which the inhibition at 1 µM was less than 20%. For the compound `CC[C@H](C)[C@@H]1NC(=O)[C@H](CCCNC(=N)N)NC(=O)[C@H](CCCNC(=N)N)NC(=O)[C@H](CC(N)=O)NC(=O)[C@@H](NC(=O)[C@@H](N)CC(N)=O)CSSC[C@@H](C(=O)N[C@@H](Cc2c[nH]c3ccccc23)C(=O)N[C@@H](CCCCN)C(=O)N[C@@H](CCCCN)C(N)=O)NC(=O)[C@H](CCC(N)=O)NC(=O)[C@H](Cc2c[nH]cn2)NC(=O)[C@@H]2CCCN2C(=O)[C@H]([C@@H](C)CC)NC1=O` [Peptide 39, TPN-RQ 4–17] (H-NCNRRIIPHQCWKK-NH2; disulfide 2-11), the inhibition at 1 µM is less than 20%. Regarding `CC[C@H](C)[C@@H]1NC(=O)[C@H](CCCNC(=N)N)NC(=O)[C@H](CCCNC(=N)N)NC(=O)[C@H](CC(N)=O)NC(=O)[C@@H](NC(=O)[C@@H](N)CC(N)=O)CSSC[C@@H](C(=O)N[C@@H](Cc2c[nH]c3ccccc23)C(=O)N[C@@H](CCCCN)C(=O)N[C@@H](CCCCN)C(N)=O)NC(=O)[C@H](CCC(N)=O)NC(=O)[C@H](CCCCN)NC(=O)[C@@H]2CCCN2C(=O)[C@H]([C@@H](C)CC)NC1=O` [Peptide 40, TPN-RQ 4-17(H12K)] (H-NCNRRIIPKQCWKK-NH2; disulfide 2-11), the inhibition at 1 µM was less than 20%.

With `CC[C@H](C)[C@@H]1NC(=O)[C@H](CCCNC(=N)N)NC(=O)[C@H](CCCNC(=N)N)NC(=O)[C@H](CC(N)=O)NC(=O)[C@H](CO)NC(=O)[C@H](CC(N)=O)NC(=O)[C@@H](N)CSSC[C@@H](C(=O)N[C@@H](Cc2c[nH]c3ccccc23)C(=O)N[C@@H](CCCCN)C(N)=O)NC(=O)[C@H](CCC(N)=O)NC(=O)[C@H](Cc2c[nH]cn2)NC(=O)[C@@H]2CCCN2C(=O)[C@H]([C@@H](C)CC)NC1=O` [Peptide 41, TPN-RQ 3-16(C5S)] (H-CNSNRRIIPHQCWK-NH2; disulfide 1-12), the inhibition at 1 µM is less than 20%.
